Values after ≈ are worked out from the molar mass of the structure shown.
tested on: RSV A2; experiment: RSV antiviral cytopathic effect (CPE) assay, MTT readout; assay type: cell-based; conditions: human respiratory syncytial virus, HEp-2, 120 h; RSV A2 in HEp2 cells, CPE assay, MTT, approx. 5 days; read-out: Activity Range (RSV A2 antiviral EC50), compounds of Table 2
Description: Method Q: RSV Antiviral Assay Protocol
Compounds of the invention were tested for their antiviral activity against respiratory syncytial virus. Cytopathic effect (CPE) assays were performed essentially as described in the literature (see for example Watanabe et al, 1. Virological Methods, 1994, 48, 257). Serial dilutions of the test compounds were made in assay medium. HEp2 cells (1.0×10^4 cells/well) were infected with RSV at a low multiplicity of infection (e.g. RSV A2 at an moi of 0.01) and 100 μL added to cultures assessing antiviral activity and cells without virus added to those assessing compound cytotoxicity. Assays were incubated for approximately 5 days at 37° C. in a 5% CO2 atmosphere. The extent of CPE was determined via metabolism of the vital dye 3-(4,5-dimethylthiaxol-2-yl)-2,5-diphenyltetrazolium bromide (MTT). A 3 mg/ml stock of MTT was made in assay medium and 100 μL added to each well, taking the final MTT concentration to […]. After 2 hours incubation at 37° C., the media-MTT solution was removed and 200 μL of isopropanol was added to dissolve the vital dye crystals. Plates were shaken and the absorbance read at 540 nm. The compound concentrations that inhibited CPE by 50% (EC50) and developed cytotoxicity (CC50) were calculated using an Excel curve fitting program.

`COc1ccc(-c2ocnc2C(=O)N2CCN3C(=O)c4ccccc4C32c2ccc(Cl)cc2)cc1` (centres unmarked) [Compound 332] and `Cc1nonc1C(=O)N1CCN2C(=O)c3ccccc3C21c1ccc(Cl)cc1` (centres unmarked) [Compound 335] cannot be ordered by EC50: under 0.1 µg/mL for the first, under 0.1 µg/mL for the second.

First: Cn1cc(C(=O)N2CCN3C(=O)c4ccccc4C32c2ccc(Cl)cc2)c(C(F)(F)F)n1 (centres unmarked) [Compound 333]
Second: O=C(c1cscn1)N1CCN2C(=O)c3ccccc3C12c1ccc(Cl)cc1 (centres unmarked) [Compound 334]
The EC50 of the first is lower: under 0.1 µg/mL for the first, 0.1 to 0.25 µg/mL (≈ 0.253 to 0.632 µM) for the second.

same assay, conditions: human respiratory syncytial virus, HEp-2, 120 h; RSV A2 in HEp2 cells, CPE assay, MTT, approx. 5 days; read-out: Activity Range (RSV A2 antiviral EC50), compounds of Table 3

Compared with `O=C(c1ccc(F)cc1)N1CCN2C(=O)c3ccncc3C12c1ccccc1Cl` (centres unmarked) [Compound 344], `O=C(c1ccc(F)cc1)N1CCN2C(=O)c3ccncc3C12c1ccc(Br)cc1` (centres unmarked) [Compound 358] is lower in EC50: 0.25 to 1 µg/mL (≈ 0.613 to 2.45 µM) for the first, 0.1 to 0.25 µg/mL (≈ 0.221 to 0.553 µM) for the second.

`COc1ccc(CC(=O)N2CCN3C(=O)c4ccncc4C23c2ccc(Cl)cc2)cc1` (centres unmarked) [Compound 351] and `CCc1ccc(C23c4cnccc4C(=O)N2CCN3C(=O)Cc2ccc(OC)cc2)cc1` (centres unmarked) [Compound 371] fall in the same range of EC50: 0.25 to 1 µg/mL (≈ 0.576 to 2.3 µM) for the first, 0.25 to 1 µg/mL (≈ 0.585 to 2.34 µM) for the second.

First: O=C(c1ccc(F)cc1)N1CCN2C(=O)c3cccnc3C12c1ccc(Cl)cc1 (centres unmarked) [Compound 360]
Second: O=C(c1ccc(F)nc1)N1CCN2C(=O)c3cccnc3C12c1ccc(Cl)cc1 (centres unmarked) [Compound 369]
The EC50 of the first is higher: 0.25 to 1 µg/mL (≈ 0.613 to 2.45 µM) for the first, 0.1 to 0.25 µg/mL (≈ 0.245 to 0.612 µM) for the second.

Compared with `CCc1ccc(C23c4cnccc4C(=O)N2CCN3C(=O)c2ccc(F)cc2)cc1` (centres unmarked) [Compound 361], `CCc1ccc(C23c4c[n+]([O-])ccc4C(=O)N2CCN3C(=O)c2ccc(F)cc2)cc1` (centres unmarked) [Compound 372] is higher in EC50: 0.1 to 0.25 µg/mL (≈ 0.249 to 0.623 µM) for the first, 0.25 to 1 µg/mL (≈ 0.599 to 2.4 µM) for the second.

First: O=C(c1cccnc1)N1CCN2C(=O)c3ccncc3C12c1ccc(Cl)cc1 (centres unmarked) [Compound 363]
Second: O=C(c1cncc(Br)c1)N1CCN2C(=O)c3ccncc3C12c1ccc(Cl)cc1 (centres unmarked) [Compound 405]
The EC50 of the first is lower: under 0.1 µg/mL for the first, 0.1 to 0.25 µg/mL (≈ 0.213 to 0.532 µM) for the second.

First: O=C(c1ccc(Cl)nc1)N1CCN2C(=O)c3ccncc3C12c1ccc(Cl)cc1 (centres unmarked) [Compound 364]
Second: O=C(c1ccc(F)nc1)N1CCN2C(=O)c3ccncc3C12c1ccc(Cl)cc1 (centres unmarked) [Compound 368]
The EC50 of the first is higher: 0.25 to 1 µg/mL (≈ 0.588 to 2.35 µM) for the first, under 0.1 µg/mL for the second.

First: O=C(c1ccc(F)nc1)N1CCN2C(=O)c3ccncc3C12c1ccc(Br)cc1 (centres unmarked) [Compound 366]
Second: O=C(c1ccc(F)nc1)N1CCN2C(=O)c3cnccc3C12c1ccc(Br)cc1 (centres unmarked) [Compound 367]
The EC50 of the first is lower: under 0.1 µg/mL for the first, 0.25 to 1 µg/mL (≈ 0.552 to 2.21 µM) for the second.

Compared with `O=C(c1ccc(F)nc1)N1CCN2C(=O)c3ncccc3C12c1ccc(Cl)cc1` (centres unmarked) [Compound 370], `CSc1ncccc1C(=O)N1CCN2C(=O)c3ccncc3C21c1ccc(Cl)cc1` (centres unmarked) [Compound 398] is lower in EC50: 0.25 to 1 µg/mL (≈ 0.612 to 2.45 µM) for the first, 0.1 to 0.25 µg/mL (≈ 0.229 to 0.572 µM) for the second.

`O=C(c1csc(-c2cccs2)n1)N1CCN2C(=O)c3ccncc3C12c1ccc(Cl)cc1` (centres unmarked) [Compound 377] and `O=C(c1csc(-c2cccnc2)n1)N1CCN2C(=O)c3ccncc3C12c1ccc(Cl)cc1` (centres unmarked) [Compound 381] cannot be ordered by EC50: under 0.1 µg/mL for the first, under 0.1 µg/mL for the second.

Compared with `O=C1c2ccncc2C2(c3ccc(Cl)cc3)N1CCN2C(=O)c1csc2ccccc12` (centres unmarked) [Compound 379], `O=C(c1csc(-c2ccccc2)n1)N1CCN2C(=O)c3ccncc3C12c1ccc(Cl)cc1` (centres unmarked) [Compound 391] is lower in EC50: 0.1 to 0.25 µg/mL (≈ 0.224 to 0.561 µM) for the first, under 0.1 µg/mL for the second.

First: Cc1cc(C(=O)N2CCN3C(=O)c4ccncc4C23c2ccc(Cl)cc2)no1 (centres unmarked) [Compound 382]
Second: Cc1noc(C)c1C(=O)N1CCN2C(=O)c3ccncc3C21c1ccc(Cl)cc1 (centres unmarked) [Compound 392]
The EC50 of the first is higher: 0.25 to 1 µg/mL (≈ 0.633 to 2.53 µM) for the first, 0.1 to 0.25 µg/mL (≈ 0.245 to 0.611 µM) for the second.

`Cc1cc(C(=O)N2CCN3C(=O)c4ccncc4C32c2ccc(Cl)cc2)c(C(F)(F)F)o1` (centres unmarked) [Compound 385] and `Cc1cc(C(=O)N2CCN3C(=O)c4ccncc4C32c2ccc(Cl)cc2)c(C)o1` (centres unmarked) [Compound 412] cannot be ordered by EC50: under 0.1 µg/mL for the first, under 0.1 µg/mL for the second.

`Cc1nnsc1C(=O)N1CCN2C(=O)c3ccncc3C21c1ccc(Cl)cc1` (centres unmarked) [Compound 386] and `Cc1nc(C(=O)N2CCN3C(=O)c4ccncc4C23c2ccc(Cl)cc2)cs1` (centres unmarked) [Compound 444] fall in the same range of EC50: 0.1 to 0.25 µg/mL (≈ 0.243 to 0.607 µM) for the first, 0.1 to 0.25 µg/mL (≈ 0.243 to 0.608 µM) for the second.

First: Cc1nn(-c2ccccc2)nc1C(=O)N1CCN2C(=O)c3ccncc3C21c1ccc(Cl)cc1 (centres unmarked) [Compound 387]
Second: O=C1c2ccncc2C2(c3ccc(Cl)cc3)N1CCN2C(=O)c1ccnn1-c1ccccc1 (centres unmarked) [Compound 423]
The EC50 of the first is lower: 0.1 to 0.25 µg/mL (≈ 0.212 to 0.531 µM) for the first, 0.25 to 1 µg/mL (≈ 0.548 to 2.19 µM) for the second.

`Cc1oc(-c2ccccc2)cc1C(=O)N1CCN2C(=O)c3ccncc3C21c1ccc(Cl)cc1` (centres unmarked) [Compound 394] and `O=C1c2ccncc2C2(c3ccc(Cl)cc3)N1CCN2C(=O)c1cccnc1Oc1ccccc1` (centres unmarked) [Compound 404] fall in the same range of EC50: 0.25 to 1 µg/mL (≈ 0.532 to 2.13 µM) for the first, 0.25 to 1 µg/mL (≈ 0.518 to 2.07 µM) for the second.

First: O=C1c2ccncc2C2(c3ccc(Cl)cc3)N1CCN2C(=O)c1cccnc1Oc1ccc(Cl)cc1 (centres unmarked) [Compound 395]
Second: CCSc1ncccc1C(=O)N1CCN2C(=O)c3ccncc3C21c1ccc(Cl)cc1 (centres unmarked) [Compound 397]
The EC50 of the first is higher: 0.25 to 1 µg/mL (≈ 0.483 to 1.93 µM) for the first, 0.1 to 0.25 µg/mL (≈ 0.222 to 0.554 µM) for the second.

Compared with `CCCCCSc1ncccc1C(=O)N1CCN2C(=O)c3ccncc3C21c1ccc(Cl)cc1` (centres unmarked) [Compound 399], `CCCSc1ncccc1C(=O)N1CCN2C(=O)c3ccncc3C21c1ccc(Cl)cc1` (centres unmarked) [Compound 401] is lower in EC50: 0.25 to 1 µg/mL (≈ 0.507 to 2.03 µM) for the first, 0.1 to 0.25 µg/mL (≈ 0.215 to 0.538 µM) for the second.

`O=C(c1cncc(C#Cc2ccccc2)c1)N1CCN2C(=O)c3ccncc3C12c1ccc(Cl)cc1` (centres unmarked) [Compound 406] and `O=C(c1ccc(C#Cc2ccccc2)o1)N1CCN2C(=O)c3ccncc3C12c1ccc(Cl)cc1` (centres unmarked) [Compound 416] fall in the same range of EC50: 0.25 to 1 µg/mL (≈ 0.509 to 2.04 µM) for the first, 0.25 to 1 µg/mL (≈ 0.521 to 2.08 µM) for the second.

First: CCCCC#Cc1cncc(C(=O)N2CCN3C(=O)c4ccncc4C23c2ccc(Cl)cc2)c1 (centres unmarked) [Compound 408]
Second: O=C(c1cncc(-c2cccs2)c1)N1CCN2C(=O)c3ccncc3C12c1ccc(Cl)cc1 (centres unmarked) [Compound 409]
The EC50 of the first is higher: 0.25 to 1 µg/mL (≈ 0.531 to 2.12 µM) for the first, 0.1 to 0.25 µg/mL (≈ 0.211 to 0.529 µM) for the second.

`O=C(c1ccco1)N1CCN2C(=O)c3ccncc3C12c1ccc(Cl)cc1` (centres unmarked) [Compound 413] and `O=C(c1ccoc1)N1CCN2C(=O)c3ccncc3C12c1ccc(Cl)cc1` (centres unmarked) [Compound 414] cannot be ordered by EC50: under 0.1 µg/mL for the first, under 0.1 µg/mL for the second.

`Cc1cc(C(=O)N2CCN3C(=O)c4ccncc4C23c2ccc(Cl)cc2)oc1C` (centres unmarked) [Compound 415] and `Cc1cc(C(=O)N2CCN3C(=O)c4ccncc4C32c2ccc(Cl)cc2)n(C)n1` (centres unmarked) [Compound 420] fall in the same range of EC50: 0.25 to 1 µg/mL (≈ 0.613 to 2.45 µM) for the first, 0.25 to 1 µg/mL (≈ 0.613 to 2.45 µM) for the second.

`Cc1cc(C(=O)N2CCN3C(=O)c4ccncc4C23c2ccc(Cl)cc2)nn1C` (centres unmarked) [Compound 421] and `CCn1nc(C)cc1C(=O)N1CCN2C(=O)c3ccncc3C21c1ccc(Cl)cc1` (centres unmarked) [Compound 422] fall in the same range of EC50: 0.25 to 1 µg/mL (≈ 0.613 to 2.45 µM) for the first, 0.25 to 1 µg/mL (≈ 0.593 to 2.37 µM) for the second.

`O=C(c1ccsc1)N1CCN2C(=O)c3ccncc3C12c1ccc(Cl)cc1` (centres unmarked) [Compound 430] and `O=C(c1cccs1)N1CCN2C(=O)c3ccncc3C12c1ccc(Cl)cc1` (centres unmarked) [Compound 431] cannot be ordered by EC50: under 0.1 µg/mL for the first, under 0.1 µg/mL for the second.

Compared with `O=C(c1csc([N+](=O)[O-])c1)N1CCN2C(=O)c3ccncc3C12c1ccc(Cl)cc1` (centres unmarked) [Compound 434], `O=C1c2ccncc2C2(c3ccc(Cl)cc3)N1CCN2C(=O)c1sccc1Cl` (centres unmarked) [Compound 442] is lower in EC50: 0.25 to 1 µg/mL (≈ 0.567 to 2.27 µM) for the first, under 0.1 µg/mL for the second.

First: COc1c(C(=O)N2CCN3C(=O)c4ccncc4C32c2ccc(Cl)cc2)csc1Cl (centres unmarked) [Compound 436]
Second: COc1c(C(=O)N2CCN3C(=O)c4ccncc4C32c2ccc(Cl)cc2)csc1Br (centres unmarked) [Compound 438]
The EC50 of the first is lower: 0.1 to 0.25 µg/mL (≈ 0.217 to 0.543 µM) for the first, 0.25 to 1 µg/mL (≈ 0.495 to 1.98 µM) for the second.

First: O=C(c1ccc(Br)s1)N1CCN2C(=O)c3ccncc3C12c1ccc(Cl)cc1 (centres unmarked) [Compound 437]
Second: O=C1c2ccncc2C2(c3ccc(Cl)cc3)N1CCN2C(=O)c1sccc1Br (centres unmarked) [Compound 445]
The EC50 of the first is higher: 0.25 to 1 µg/mL (≈ 0.527 to 2.11 µM) for the first, under 0.1 µg/mL for the second.

First: COc1cscc1C(=O)N1CCN2C(=O)c3ccncc3C12c1ccc(Cl)cc1 (centres unmarked) [Compound 441]
Second: CCOc1ccsc1C(=O)N1CCN2C(=O)c3ccncc3C21c1ccc(Cl)cc1 (centres unmarked) [Compound 449]
The EC50 of the first is higher: 0.1 to 0.25 µg/mL (≈ 0.235 to 0.587 µM) for the first, under 0.1 µg/mL for the second.

Molecule `O=C(c1ccno1)N1CCN2C(=O)c3ccncc3C12c1ccc(Cl)cc1` (centres unmarked) [Compound 448] has an EC50 of 0.1 to 0.25 µg/mL (≈ 0.263 to 0.657 µM).

Reference: patent US8598193B2, “Polycyclic agents for the treatment of respiratory syncytial virus infections” (Biota Scientific Management Pty Ltd., priority 2003, dated 2013)
